Where two headings read alike, the source gives them in different places.
Key:
[1] = system: GAL4-CREB; type: cell-based, human; conditions: transient assays, 10 ug/ml; data not shown
[2] = system: GAL4-CREB; experiment: Luciferase reporter assay in RCLH-CREB stable cells treated with extracellular stimuli; type: cell-based, human; conditions: 5 hours

Compound | stimulation of luciferase expression [1] | effect on luciferase expression ([2]; 50 ug/ml) | stimulation of luciferase expression ([2]; in the presence of 100 uM forskolin)
adenylate cyclase toxin [AC toxin] | 13 fold | approximately 7 fold | –
CCCCCCCCCCCCCC(=O)O[C@@H]1[C@@H](C)[C@@]2(O)[C@@H](C=C(CO)C[C@]3(O)C(=O)C(C)=C[C@@H]23)[C@@H]2C(C)(C)[C@]12OC(C)=O [PMA, phorbol-12-myristate-13-acetate] | – | – | approximately 70 fold

Reference: US20050106582A1, “Compositions and methods utilizing stable reporter cell lines for detection of CREB-dependent signal transduction” (Stratagene, priority 1999, published 2005)
